The values below are quoted from earlier work in patent US20070015719A1 (Elan Pharma International Limited, priority 2005, published 2007).

The conditions of this series: in acidic solutions.

For “6-o-methyl erythromycin A [clarithromycin]”, the stability result is on record as “stable”.
